Assay results as given in article PMC12686243, “Synthesis and preclinical evaluation of FAP-targeting radiotracers for PET and optical imaging” (EJNMMI Radiopharmacy and Chemistry, 2025).

Assays:
WT-HT1080 cells = test: real-time binding control on wild type HT1080 cells; parameters: species or system human; conditions: cells lacking substantial FAP expression
Protocol: To determine binding kinetics (association rate constant ka, dissociation rate constant kd, and thermodynamic dissociation constant KD), real-time assay systems (LigandTracer Yellow/White for radioactivity and Green with Red/NIR + and NIR + + /IR detectors for fluorescence; Ridgeview Instruments AB, Sweden) were utilized. In a 100 mm petri dish, cells or tissue sections in medium (3–4 mL total volume), are located on one side, while the radioactive or fluorescent signal is detected on the opposite, elevated side. Rotation on an inclined base in set intervals (30 s) allows continuous measurement of signal in the target (cells/tissue) against background area (no cells/tissue). Experiments were performed at room temperature, using CO2-independent medium, usually with 0.5–1% w/v bovine serum albumin, (#1ETA, Carl Roth, Germany). Association was determined through incubation with two distinct concentrations (between 1–5 and 4.5–10 nM, 60 min each, additive) for each compound. For that purpose, the same ligand preparation was typically employed for radioactive and fluorescent detection. This was followed by replacement with fresh medium and observation of dissociation for at least 2 h. Additionally, the dissociation rate constant was further investigated beyond 6 h, either using fluorescent detection or via gallium-67 (t1/2: 78.3 h). […]

[1] = test system: hFAP-HT1080 and WT-HT1080 xenografts; test: small-animal PET imaging of xenograft-bearing mice; type: in vivo, female NMRI-nude mice
From the text: Female athymic NMRI-nude mice (Rj:NMRI-Foxn1nu, Janvier Labs, France or Charles River, Germany) between 8 and 20 weeks of age were used. Subsequently, the prepared cells (1.0–2.0 × 10^6 hFAP/WT-HT1080 per animal) were subcutaneously injected into the right and left thigh, respectively. Xenograft tissue for real-time binding experiments was derived from animals injected with both target-positive and negative cells, however only showing growth of one tumor entity. When approaching endpoints, mice were anesthetized and euthanized. The tumor was quickly removed, frozen in − 45 °C 2-methylbutane and stored in sealed tubes at − 80 °C.
PET and X-ray computed tomography (CT) were performed in a dedicated small animal scanner (nanoScan PET/CT, Mediso, Hungary). Animals received a single dynamic scan corresponding to 0–2 h post injection. The radiotracer solution (8 – 20 MBq injected activity) was delivered via an i.v. catheter (lateral tail vein) and PET acquisition was started simultaneously with the injection. Blocking was performed by pre-injection (~ 5 min prior to tracer) of 100 nmol of FAPI-04. Three-dimensional list mode data were binned (400–600 keV energy window) and sorted into 35-time frames (15 × 10 s, 5 × 30 s, 5 × 60 s, 4 × 300 s, 3 × 600 s, 3 × 1200 s). Time frames were then reconstructed using the Tera-Tomo™ 3D algorithm with a voxel size of 0.4 mm and corrected for decay, scatter, and attenuation. PET data was analyzed using Rover (ABX GmbH, Germany). Three-dimensional volumes of interest (VOI) were delineated based on organs/tissues [xenografts, kidney, liver, shoulder and muscle (~ biceps brachii)] and a fixed threshold (35% of the measured maximum intensity) was applied. This yielded standardized uptake values (SUV = [MBq detected activity/mL tissue] / [MBq injected activity/g body weight], mL/g) for the chosen VOI.

Row | SMILES | binding to wild type HT1080 cells (WT-HT1080 cells) | radioactivity in hFAP-HT1080 xenografts higher than in WT-HT1080 tumor (SUVmax) ([1]; SUVmax) | radioactivity in hFAP-HT1080 xenografts higher than in WT-HT1080 tumor (SUVmean) ([1]; SUVmean) | increase of radioactivity in the kidney compared to tracer-only animals ([1]; pre-injection of unlabeled FAPI-04, depending on timepoint)
1 | CN(CCCN1CCN(C(=O)[C@H](CCCCNC(=O)CC[C@H](C(=O)[O-])N2CCN(CC(=O)[O-])CCN(CC(=O)[O-])CC2)NC(=O)CCOCCOCCOCCOCCNC(=O)CCCCC[N+]2=C(C=CC=CC=C3N(CCCS(=O)(=O)O)c4ccc(S(=O)(=O)O)cc4C3(C)C)C(C)(CCCS(=O)(=O)O)c3cc(S(=O)(=O)[O-])ccc32)CC1)c1ccc2nccc(C(=O)NCC(=O)N3CC(F)(F)C[C@H]3C#N)c2c1.[68Ga+3] (some centres unmarked) [[^68Ga]Ga-NODAGA-FAP647] | lacking any binding | 392% |  | 
2 | CN(CCCN1CCN(C(=O)[C@H](CCCCNC(=O)CC[C@H](C(=O)[O-])N2CCN(CC(=O)[O-])CCN(CC(=O)[O-])CC2)NC(=O)CCOCCOCCOCCOCCNC(=O)CCCCCN2C(=CC=C3CCCC(C=CC4=[N+](CCCCS(=O)(=O)[O-])c5ccc(S(=O)(=O)O)cc5C4(C)C)=C3Oc3ccc(S(=O)(=O)O)cc3)C(C)(C)c3cc(S(=O)(=O)O)ccc32)CC1)c1ccc2nccc(C(=O)NCC(=O)N3CC(F)(F)C[C@H]3C#N)c2c1.[68Ga+3] [[^68Ga]Ga-NODAGA-FAP800] | lacking any binding |  | 236% | not observed
